The text below walks through data of ChEMBL document CHEMBL1201862, “PubChem BioAssay data set” (2004).

SMILES strings stand for the structures.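 Tested at 5 concentrations; 48 h exposure; 96-well plates; endpoints linearly interpolated, else capped at highest concentration. The concentration for 50% growth inhibition is given as GI50.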 The source made the active and inactive calls. No stated cut-off is given here; in the data, active = GI50 up to about 1.1 µM and inactive = higher.

Among the test systems are K562; LOX IMVI; DLD-1; RXF 393; A498; HCT-15; UACC-257; NCI-H460; NCI-H226; RPMI-8226; NCI-H23; HCT-116; KM12; SK-MEL-5; EKVX; M14; SW-620; M19-MEL; NCI/ADR-RES; Hs-578T.
Common to all, as to assay: NCI-60 cell line screen, 48 h

Consider `O=C(N[C@H]1CC2(C=C(I)C(=O)C(I)=C2)OC1=O)OCc1ccccc1`, for which the GI50 is 10.4 µM (inactive) in the assay with K562; 16 µM (inactive) in the assay with LOX IMVI; 15.7 µM (inactive) in the assay on DLD-1; 15.2 µM (inactive) in the assay with RXF 393; > 100 µM (inactive) in the assay with A498; 20.9 µM with HCT-15. The GI50 is 16.4 µM (inactive) with UACC-257; 21.1 µM (inactive) in the assay on NCI-H460; 22.7 µM (inactive) in the assay with NCI-H226; 26.2 µM (inactive) in the assay on RPMI-8226; 17.8 µM (inactive) in the assay with NCI-H23; 15.9 µM (inactive) in the assay with HCT-116. For the same compound, the GI50 is 16 µM (inactive) in the assay on KM12, 27 µM (inactive) in the assay on SK-MEL-5, 14.3 µM (inactive) with EKVX and 17.2 µM (inactive) in the assay with M14.
`CCN(CC)CCCNc1nccc2c(C)c3[nH]c4ccncc4c(=O)c3cc12`: the GI50 with K562 was 2.61 µM (inactive); with LOX IMVI, 0.975 µM (active); in the assay with DLD-1 it was 1.79 µM (inactive); in the assay on RXF 393, 0.558 µM (active); with A498, 7.28 µM (inactive); in the assay on HCT-15, 8.71 µM. The GI50 in the assay on UACC-257 is 6.84 µM (inactive); with SW-620, 1.84 µM (inactive); with NCI-H460, 1.71 µM (inactive); in the assay with NCI-H226 it was 2.24 µM (inactive); in the assay with RPMI-8226, 2.64 µM (inactive); in the assay with NCI-H23 it was 1.95 µM (inactive). The GI50 in the assay with HCT-116 was 0.514 µM (active); in the assay on KM12, 3.52 µM (inactive); in the assay with SK-MEL-5, 3.57 µM (inactive); in the assay with EKVX it was 5.68 µM (inactive); in the assay with M14, 2.84 µM (inactive).
`Cc1cccc(NC(=O)CC(=O)N2N=C(N(CCC#N)c3ccc(Cl)cc3)CC2c2ccccc2)c1` (stereo not drawn): the GI50 with K562, with LOX IMVI, in the assay on DLD-1, in the assay with RXF 393, with UACC-257 and with SW-620 was > 100 µM (inactive) in each case. In addition, the GI50 with NCI-H460, with NCI-H23, with HCT-116, with KM12, in the assay with SK-MEL-5 and in the assay with M19-MEL was > 100 µM (inactive) throughout. In addition, the GI50 in the assay with M14 was > 100 µM (inactive).
Turning to `Brc1cc2c(cc1C1SCCS1)OCO2`, the GI50 in the assay with K562 was 59.2 µM (inactive); in the assay with LOX IMVI, 81.7 µM (inactive); with DLD-1, > 100 µM (inactive); with A498, > 100 µM (inactive); in the assay on HCT-15, above 100 µM; with UACC-257 it was > 100 µM (inactive). In addition, the GI50 in the assay with SW-620 is > 100 µM (inactive); in the assay with NCI-H460 it was > 100 µM (inactive); with RPMI-8226, 89.5 µM (inactive); in the assay on NCI-H23 it was > 100 µM (inactive); in the assay on HCT-116, > 100 µM (inactive); with KM12, > 100 µM (inactive). Moreover, the GI50 in the assay on SK-MEL-5, with EKVX and in the assay on M14 was > 100 µM (inactive) each time.
For `O=c1c2c([nH]c3cc4c(cc13)OCO4)-c1ccccc1C2`, the GI50 with K562 was 27.2 µM (inactive); in the assay on LOX IMVI it was 15.6 µM (inactive); with DLD-1, 23.5 µM (inactive); with RXF 393, 16.4 µM (inactive); with HCT-15, 19.3 µM; in the assay with SW-620 it was 35.2 µM (inactive). Also, the GI50 is 22.3 µM (inactive) with NCI-H460; 27.2 µM (inactive) in the assay on NCI-H226; 15 µM (inactive) with RPMI-8226; 26.1 µM (inactive) in the assay with NCI-H23; 15.6 µM (inactive) in the assay with HCT-116; 18.6 µM (inactive) with KM12. Moreover, the GI50 was 16 µM (inactive) with SK-MEL-5, 29.6 µM (inactive) in the assay with EKVX and 20.6 µM (inactive) in the assay on M14.
`Nn1c(=O)n(Cc2ccccc2)n(-c2ccccc2)c1=O`: the GI50 with K562, in the assay on LOX IMVI, in the assay on DLD-1, in the assay with RXF 393, with A498 and with UACC-257 was > 100 µM (inactive) in each case. For the same compound, the GI50 with SW-620, in the assay on NCI-H460, in the assay with NCI-H226, in the assay with RPMI-8226, in the assay on NCI-H23 and with HCT-116 was > 100 µM (inactive) each time. Besides, the GI50 in the assay with KM12, in the assay with SK-MEL-5 and in the assay on M14 was > 100 µM (inactive) throughout.
`CC1=NN(C(=O)c2ccccc2O)C(=O)/C1=C/c1ccccc1O`: the GI50 in the assay with K562 is 0.0914 µM (active); in the assay on LOX IMVI, 0.568 µM (active); in the assay with DLD-1, 0.0807 µM (active); in the assay with RXF 393 it was 0.0986 µM (active); with A498, 0.0327 µM (active); with HCT-15 it was 0.292 µM. For the same compound, the GI50 is 2.31 µM (inactive) in the assay with UACC-257; 1.54 µM (inactive) with SW-620; 0.209 µM (active) with NCI-H460; 0.977 µM (active) in the assay with NCI-H226; 0.931 µM (active) in the assay with RPMI-8226; 0.404 µM (active) in the assay on NCI-H23. Moreover, the GI50 in the assay on HCT-116 is 0.107 µM (active); with NCI/ADR-RES, 0.558 µM (active); in the assay with KM12, 2.76 µM (inactive); in the assay with SK-MEL-5, 1.06 µM (active); in the assay with EKVX, 1.78 µM (inactive); in the assay on M14 it was 1.55 µM (inactive).
Take `CC1(C)C(=O)N(CCCCCCN2C(=O)C(C)(C)c3ccccc32)c2ccccc21`: the GI50 was 22.6 µM (inactive) in the assay on K562; 22 µM (inactive) in the assay on LOX IMVI; > 100 µM (inactive) in the assay on A498; 34.3 µM in the assay on HCT-15; 21.8 µM (inactive) in the assay on UACC-257; 14.7 µM (inactive) in the assay on SW-620. For the same compound, the GI50 is 54.3 µM (inactive) in the assay on NCI-H460; 26.3 µM (inactive) with NCI-H226; 23 µM (inactive) in the assay on RPMI-8226; 42.6 µM (inactive) in the assay with NCI-H23; 21 µM (inactive) with HCT-116; 37.9 µM (inactive) in the assay with KM12. The GI50 with SK-MEL-5 was 18.6 µM (inactive); in the assay with EKVX it was 38.1 µM (inactive); in the assay with M19-MEL, 22.6 µM (inactive); in the assay on M14, 24.6 µM (inactive).
As to `CC(C)OP(=O)(OC(C)C)/C(C#N)=C/c1ccco1`, the GI50 in the assay on K562 is > 100 µM (inactive); with LOX IMVI, > 100 µM (inactive); with RXF 393, > 100 µM (inactive); in the assay with A498 it was > 100 µM (inactive); in the assay on HCT-15, above 100 µM; in the assay on UACC-257 it was > 100 µM (inactive). For the same compound, the GI50 in the assay on SW-620, in the assay on NCI-H460, in the assay on NCI-H226, with RPMI-8226, in the assay on NCI-H23 and in the assay with HCT-116 was > 100 µM (inactive) in each case. In addition, the GI50 with NCI/ADR-RES, in the assay on KM12, in the assay on Hs-578T, in the assay on SK-MEL-5, with EKVX and in the assay with M14 was > 100 µM (inactive) each time.
